Like-named read-outs stand apart in the source and are kept apart here.
Tested on: H460 non-cell lung cancer human tumor cell line
Assay: In vitro human tumor cell line cytotoxicity (proliferation) assay, AlamarBlue
Type: cell-based
Experimental: IC50 values are reported in micromolar and result from exposure of compound at various concentrations for 2 hrs followed by a wash step and addition of fresh media followed by growth and cell viability staining and comparison to a media only treated control.
Specifically, exponentially growing cells are seeded at a density of 4×10^3 cells per well in a 96 well plate and incubated at 37° C. in 5% CO2, 95% air and 100% relative humidity for 24 hours prior to addition of test compounds. Compounds are solubilized in 100% DMSO at 200 times the desired final test concentration. At the time of drug addition, compounds are further diluted to 4 times the desired final concentration with complete medium. Aliquots of 50 μl of compound at specified concentrations are added to microtiter wells already containing 150 μl of medium, resulting in the final drug concentration reported. After drug addition, the plates are incubated for an additional 2 hours at 37° C., 5% CO2, 95% air, and 100% relative humidity, then the drug is washed off and fresh medium is added and the plates are incubated for addition 70 hrs at 37° C., 5% CO2, 95% air and 100% relative humidity. At the end of this incubation, the viable cells are quantified using the AlamarBlue assay. The drug concentration resulting in growth inhibition of 50% (IC50) is calculated using Prism software (Irvine, Calif.), and the results are listed in the table.

[1] = Homo sapiens, NCI-H460, H460 cells, under air, 2 hrs exposure, wash, then 70 hrs growth, read-out: IC50 (air)
[2] = Homo sapiens, NCI-H460, H460 cells, under nitrogen, 2 hrs exposure, wash, then 70 hrs growth, read-out: IC50 (N2)
[3] = H460 cells, under air, 2 hrs exposure, wash, then 70 hrs growth, read-out: IC50 (air)
[4] = H460 cells, under nitrogen, 2 hrs exposure, wash, then 70 hrs growth, read-out: IC50 (N2)
[5] = Homo sapiens, NCI-H460, read-out: IC50 (N2), H460 cells, under nitrogen, 2 hrs exposure, wash, then 70 hrs growth
[6] = Homo sapiens, NCI-H460, read-out: IC50 (air), H460 cells, under air, 2 hrs exposure, wash, then 70 hrs growth

CC(OP(=O)(N1CC1)N1CC1)c1ccc([N+](=O)[O-])c(C(F)(F)F)c1 (stereo not shown) [compound 2613]
IC50 [1]: 26 µM | IC50 [2]: 0.3 µM

Cc1cccc([N+](=O)[O-])c1C(C)OP(=O)(N1CC1)N1CC1 (stereo not shown) [compound 2615]
IC50 [1]: 350 µM | IC50 [2]: 320 µM

COc1ccc(C(C)OP(=O)(N2CC2)N2CC2)c([N+](=O)[O-])c1 (stereo not shown) [compound 2616]
IC50 [1]: 17 µM | IC50 [2]: 3.7 µM

CC(C)C(OP(=O)(N1CC1)N1CC1)c1ncc([N+](=O)[O-])n1C1CCCC1 (stereo not shown) [compound 2619]
IC50 [1]: 99 µM | IC50 [2]: 2.3 µM

COc1cc(C(C)OP(=O)(N2CC2)N2CC2)ccc1[N+](=O)[O-] (stereo not shown) [compound 2620]
IC50 [1]: 7.4 µM | IC50 [2]: 2.5 µM

CC(OP(=O)(N1CC1)N1CC1)c1ccc([N+](=O)[O-])c(O)c1 (stereo not shown) [compound 2621]
IC50 [1]: 39 µM | IC50 [2]: 0.3 µM

CC(C)C(OP(=O)(N1CC1)N1CC1)c1nc(Br)c([N+](=O)[O-])n1C (stereo not shown) [compound 2624]
IC50 [1]: 160 µM | IC50 [2]: 0.5 µM

O=[N+]([O-])c1ccc(COP(=O)(N2CC2)N2CC2)c(-c2ccccc2)c1 [compound 2626]
IC50 [1]: 3.3 µM | IC50 [2]: 0.6 µM

CC(C)n1c([N+](=O)[O-])cnc1COP(=O)(N1CC1)N1CC1 [compound 2627]
IC50 [1]: 32 µM | IC50 [2]: 0.5 µM

Cn1c([N+](=O)[O-])cnc1C(OP(=O)(N1CC1)N1CC1)C1CCCCC1 (stereo not shown) [compound 2633]
IC50 [1]: 83 µM | IC50 [2]: 0.3 µM

O=[N+]([O-])c1cnc(COP(=O)(N2CC2)N2CC2)n1C1CCCC1 [compound 2635]
IC50 [1]: 13 µM | IC50 [2]: 0.22 µM

COc1cccc([N+](=O)[O-])c1COP(=O)(N1CC1)N1CC1 [compound 2637]
IC50 [1]: 23 µM | IC50 [2]: 0.8 µM

Cn1c([N+](=O)[O-])cnc1C(OP(=O)(N1CC1)N1CC1)C(c1ccccc1)c1ccccc1 (stereo not shown) [compound 2640]
IC50 [1]: 83 µM | IC50 [2]: 1.1 µM

CC(C)C(OP(=O)(N1CC1)N1CC1)c1ncc([N+](=O)[O-])n1CCOC(C)(C)C (stereo not shown) [compound 2643]
IC50 [1]: 37 µM | IC50 [2]: 0.6 µM

CCCCC(CCCC)C(OP(=O)(N1CC1)N1CC1)c1ncc([N+](=O)[O-])n1C (stereo not shown) [compound 2645]
IC50 [1]: 30 µM | IC50 [2]: 1.6 µM

O=[N+]([O-])c1ccc2c(c1)CCC2OP(=O)(N1CC1)N1CC1 (stereo not shown) [compound 2652]
IC50 [1]: 2.2 µM | IC50 [2]: 0.02 µM

Cn1c([N+](=O)[O-])cnc1C(CO)OP(=O)(C1CC1)N1CC1 (stereo not shown) [compound 2654]
IC50 [1]: > 500 µM | IC50 [2]: 260 µM

O=[N+]([O-])c1ncn(-c2ccc(C(F)(F)F)cc2)c1COP(=O)(N1CC1)N1CC1 [compound 2656]
IC50 [1]: 2.4 µM | IC50 [2]: 0.1 µM

CC(C)C(OP(=O)(N1CC1)N1CC1)c1ncc([N+](=O)[O-])n1CCO (stereo not shown) [compound 2658]
IC50 [1]: 86 µM | IC50 [2]: 0.3 µM

CCC(OP(=O)(N1CC1)N1CC1)c1ncc([N+](=O)[O-])n1C (stereo not shown) [compound 2662]
IC50 [1]: 22 µM | IC50 [2]: 0.03 µM

O=[N+]([O-])c1ccc(COP(=O)(N2CC2)N2CC2)cc1F [compound 2666]
IC50 [1]: 24 µM | IC50 [2]: 2 µM

Cc1cc(C(C)OP(=O)(N2CC2)N2CC2)ccc1[N+](=O)[O-] (stereo not shown) [compound 2672]
IC50 [1]: 180 µM | IC50 [2]: 3.1 µM

O=[N+]([O-])c1ccc2c(c1)CCCC2OP(=O)(N1CC1)N1CC1 (stereo not shown) [compound 2675]
IC50 [1]: 3.4 µM | IC50 [2]: 0.05 µM

O=[N+]([O-])c1ccc2c(c1)CCCC2OP(=O)(N1CC1)N1CC1 (stereo not shown) [compound 2676]
IC50 [3]: 3.7 µM | IC50 [4]: 0.1 µM

CC(OP(=O)(N1CC1)N1CC1)c1ccc([N+](=O)[O-])c(F)c1 (stereo not shown) [compound 2678]
IC50 [1]: 32 µM | IC50 [2]: 0.4 µM

CNc1cc(C(C)OP(=O)(N2CC2)N2CC2)ccc1[N+](=O)[O-] (stereo not shown) [compound 2679]
IC50 [1]: 34 µM | IC50 [2]: 2.9 µM

CC(OP(=O)(N1CC1)N1CC1)c1ccc([N+](=O)[O-])c(N(C)C)c1 (stereo not shown) [compound 2680]
IC50 [1]: 110 µM | IC50 [2]: 2.6 µM

CCC(OP(=O)(N1CC1)N1CC1)c1ccc([N+](=O)[O-])cc1 (stereo not shown) [compound 2681]
IC50 [1]: 28 µM | IC50 [2]: 0.3 µM

CC(=O)OCC(OP(=O)(N1CC1)N1CC1)c1ccc([N+](=O)[O-])cc1 (stereo not shown) [compound 2686]
IC50 [1]: 79 µM | IC50 [2]: 3.1 µM

CC(OP(=O)(N1CC1)N1CC1)c1ccc([N+](=O)[O-])c(NC2CC2)c1 (stereo not shown) [compound 2687]
IC50 [1]: 15 µM | IC50 [2]: 2.2 µM

C=CCC(OP(=O)(N1CC1)N1CC1)c1ccc([N+](=O)[O-])cc1 (stereo not shown) [compound 2689]
IC50 [1]: 43 µM | IC50 [2]: 0.6 µM

O=[N+]([O-])c1ccc(C(CC(F)(F)F)OP(=O)(N2CC2)N2CC2)cc1 (stereo not shown) [compound 2690]
IC50 [1]: 99 µM | IC50 [2]: 3.2 µM

CC(OP(=O)(N1CC1)N1CC1)c1ccc([N+](=O)[O-])c(N=[N+]=[N-])c1 (stereo not shown) [compound 2691]
IC50 [1]: 2.3 µM | IC50 [2]: 2.3 µM

CC(OP(=O)(N1CC1)N1CC1)c1ccc([N+](=O)[O-])c(N)c1 (stereo not shown) [compound 2692]
IC50 [1]: 6.2 µM | IC50 [2]: 2.7 µM

CC(OP(=O)(N1CC1)N1CC1)c1ccc([N+](=O)[O-])c(Nc2ccccc2)c1 (stereo not shown) [compound 2693]
IC50 [1]: 1.9 µM | IC50 [2]: 0.4 µM

CC(OP(=O)(N1CC1)N1CC1)c1ccc([N+](=O)[O-])c(N2CCOCC2)c1 (stereo not shown) [compound 2695]
IC50 [1]: 130 µM | IC50 [2]: 4.2 µM

CC(OP(=O)(N1CC1)N1CC1)c1ccc([N+](=O)[O-])c(N2CCCCC2)c1 (stereo not shown) [compound 2696]
IC50 [1]: 310 µM | IC50 [2]: 7.4 µM

CC(OP(=O)(N1CC1)N1CC1)c1ccc([N+](=O)[O-])c(Nc2ccc([N+](=O)[O-])cc2)c1 (stereo not shown) [compound 2697]
IC50 [5]: 0.5 µM | IC50 [6]: 1.5 µM

CC(OP(=O)(N1CC1)N1CC1)c1ccc([N+](=O)[O-])c(OCC(F)(F)F)c1 (stereo not shown) [compound 2698]
IC50 [1]: 3.7 µM | IC50 [2]: 1.6 µM

CC(OP(=O)(N1CC1)N1CC1)c1ccc([N+](=O)[O-])c(S(C)(=O)=O)c1 (stereo not shown) [compound 2700]
IC50 [1]: 370 µM | IC50 [2]: 350 µM

CCN(CC)c1cc(C(C)OP(=O)(N2CC2)N2CC2)ccc1[N+](=O)[O-] (stereo not shown) [compound 2701]
IC50 [1]: 66 µM | IC50 [2]: 1.3 µM

CC(OP(=O)(N1CC1)N1CC1)c1ccc([N+](=O)[O-])c(N2CCN(C)CC2)c1 (stereo not shown) [compound 2702]
IC50 [1]: 47 µM | IC50 [2]: 0.8 µM

CC(OP(=O)(N1CC1)N1CC1)c1ccc([N+](=O)[O-])c(-n2ccnc2)c1 (stereo not shown) [compound 2703]
IC50 [3]: 99 µM | IC50 [4]: 0.2 µM

CC(OP(=O)(N1CC1)N1CC1)c1ccc([N+](=O)[O-])cc1F (stereo not shown) [compound 2706]
IC50 [1]: 14 µM | IC50 [2]: 0.03 µM

CC(OP(=O)(N1CC1)N1CC1)c1ccc([N+](=O)[O-])c(N(C)O)c1 (stereo not shown) [compound 2707]
IC50 [1]: 0.2 µM | IC50 [2]: 0.1 µM

CC(OP(=O)(N1CC1)N1CC1)c1ccc([N+](=O)[O-])c(N2CCCC2)c1 (stereo not shown) [compound 2708]
IC50 [1]: 20 µM | IC50 [2]: 3 µM

CC(OP(=O)(N1CC1)N1CC1)c1ccc([N+](=O)[O-])c(N2CCC3(CC2)OCCO3)c1 (stereo not shown) [compound 2709]
IC50 [1]: 26 µM | IC50 [2]: 2.4 µM

CC(OP(=O)(N1CC1)N1CC1)c1ccc([N+](=O)[O-])c(C#N)c1 (stereo not shown) [compound 2710]
IC50 [1]: 3 µM | IC50 [2]: 0.03 µM

CC(C)(C)[Si](C)(C)OCCC(OP(=O)(N1CC1)N1CC1)c1ccc([N+](=O)[O-])cc1 (stereo not shown) [compound 2712]
IC50 [1]: 0.3 µM | IC50 [2]: 0.2 µM

O=[N+]([O-])c1ccc(C(CCO)OP(=O)(N2CC2)N2CC2)cc1 (stereo not shown) [compound 2714]
IC50 [1]: 94 µM | IC50 [2]: 0.5 µM

CC(OP(=O)(N1CC1)N1CC1)c1cc(F)c([N+](=O)[O-])cc1F (stereo not shown) [compound 2721]
IC50 [1]: 9 µM | IC50 [2]: 0.02 µM

CC1=NCCN1c1cc(C(C)OP(=O)(N2CC2)N2CC2)ccc1[N+](=O)[O-] (stereo not shown) [compound 2722]
IC50 [1]: 5 µM | IC50 [2]: 0.9 µM

CC(OP(=O)(N1CC1)N1CC1)c1ccc([N+](=O)[O-])c(N2CCNC2(C)O)c1 (stereo not shown) [compound 2723]
IC50 [1]: 420 µM | IC50 [2]: 29 µM

CC(OP(=O)(N1CC1)N1CC1)c1ccc([N+](=O)[O-])c(NS(C)(=O)=O)c1 (stereo not shown) [compound 2726]
IC50 [1]: 19 µM | IC50 [2]: 0.2 µM

CC(OP(=O)(N1CC1)N1CC1)c1ccc([N+](=O)[O-])c(-n2cncn2)c1 (stereo not shown) [compound 2727]
IC50 [1]: 31 µM | IC50 [2]: 0.2 µM

CC(OP(=O)(N1CC1)N1CC1)c1ccc([N+](=O)[O-])c(-n2cnc([N+](=O)[O-])c2)c1 (stereo not shown) [compound 2728]
IC50 [5]: 0.2 µM | IC50 [6]: 22 µM

CCN(CC)c1cc(C(C)OP(=O)(N2CC2)N2CC2)c(F)cc1[N+](=O)[O-] (stereo not shown) [compound 2730]
IC50 [1]: 22 µM | IC50 [2]: 0.7 µM

CC(OP(=O)(N1CC1)N1CC1)c1cc(-n2ccnc2)c([N+](=O)[O-])cc1F (stereo not shown) [compound 2731]
IC50 [1]: 13 µM | IC50 [2]: 0.1 µM

CC(OP(=O)(N1CC1)N1CC1)c1cc(N2CCN(C)CC2)c([N+](=O)[O-])cc1F (stereo not shown) [compound 2732]
IC50 [1]: 23 µM | IC50 [2]: 0.2 µM
